According to PubChem BioAssay (NCI):
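Method: 48-hour compound exposure of cells in 96-well plates, five concentrations, linear interpolation of endpoints. The concentration for 50% growth inhibition is given as GI50. TGI denotes the concentration required for complete inhibition of growth.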 Where a SMILES comes first, the peptide text is derived from it. [ ]: non-standard residue; d: D form. The star is where a group is joined. Nle = CCCC[C@H](N)C(=O)O; Cbz = O=C(OCc1ccccc1)*

Tests used:
Test in all cases: inhibition of tumour cell growth, NCI panel, 48 h
[1] = system: CAKI-1 renal
[2] = system: SF-295 CNS
[3] = system: NCI-H23 lung
[4] = system: BT-549 breast
[5] = system: DU-145 prostate
[6] = system: 786-0 renal
[7] = system: OVCAR-5 ovarian
[8] = system: SK-MEL-28 melanoma
[9] = system: OVCAR-4 ovarian
[10] = system: SK-MEL-5 melanoma
[11] = system: SNB-19 CNS
[12] = system: M14 melanoma
[13] = system: SK-OV-3 ovarian
[14] = system: HOP-62 NSCLC
[15] = system: HCC-2998 colon
[16] = system: TK-10 renal
[17] = system: SW-620 colon
[18] = system: SF-268 CNS
[19] = system: HS 578T breast
[20] = system: A498 renal
[21] = system: COLO 205 colon
[22] = system: MDA-MB-435
[23] = system: NCI-H460 lung
[24] = system: K-562 leukemia
[25] = system: HOP-92 NSCLC
[26] = system: MALME-3M melanoma
[27] = system: UO-31 renal
[28] = system: NCI/ADR-RES ovarian
[29] = system: ACHN renal
[30] = system: NCI-H226 lung
[31] = system: HL-60(TB) leukemia
[32] = system: IGROV1 ovarian
[33] = system: UACC-257 melanoma
[34] = system: RPMI-8226 leukemia
[35] = system: SR leukemia
[36] = system: LOX IMVI melanoma
[37] = system: PC-3 prostate
[38] = system: A549 NSCLC
[39] = system: MCF7 breast
[40] = system: NCI-H522 lung
[41] = system: HCT-116 colon
[42] = system: CCRF-CEM leukemia
[43] = system: MDA-MB-231 breast
[44] = system: HCT-15 colon
[45] = system: U251 CNS
[46] = system: UACC-62 melanoma
[47] = system: T-47D breast
[48] = system: RXF 393 renal
[49] = system: OVCAR-8 ovarian
[50] = system: OVCAR-3 ovarian
[51] = system: KM12 colon
[52] = system: HT29 colon
[53] = system: SF-539 CNS
[54] = system: MOLT-4 leukemia
[55] = system: SK-MEL-2 melanoma
[56] = system: EKVX NSCLC

CCCC[C@@H](C=O)NC(=O)[C@H](CC(C)C)NC(=O)[C@H](CC(C)C)NC(=O)OCc1ccccc1 (Cbz-Leu-Leu-[Nle]-aldehyde)
GI50 [1]: 0.441 µM
TGI [1]: 2.15 µM
GI50 [2]: 0.486 µM
TGI [2]: 5.71 µM
GI50 [3]: 0.38 µM
TGI [3]: 1.77 µM
GI50 [4]: 0.409 µM
TGI [4]: 2.59 µM
GI50 [5]: 0.617 µM
TGI [5]: 2.46 µM
GI50 [6]: 0.243 µM
TGI [6]: 1.41 µM
GI50 [7]: 0.93 µM
TGI [7]: 2.84 µM
GI50 [8]: 0.43 µM
TGI [8]: 1.61 µM
GI50 [9]: 1.07 µM
TGI [9]: > 81 µM
GI50 [10]: 0.432 µM
TGI [10]: 1.88 µM
GI50 [11]: 5.37 µM
TGI [11]: > 21.2 µM
GI50 [12]: 0.244 µM
TGI [12]: 0.603 µM
GI50 [13]: 1.31 µM
TGI [13]: > 71.5 µM
GI50 [14]: 0.415 µM
TGI [14]: 1.55 µM
GI50 [15]: 0.593 µM
TGI [15]: 1.96 µM
GI50 [16]: 0.332 µM
GI50 [17]: 0.298 µM
TGI [17]: 2.5 µM
GI50 [18]: 0.406 µM
TGI [18]: 4.17 µM
GI50 [19]: 0.308 µM
TGI [19]: 4.18 µM
GI50 [20]: 0.305 µM
TGI [20]: 0.964 µM
GI50 [21]: 0.979 µM
TGI [21]: 6.2 µM
GI50 [22]: 0.212 µM
TGI [22]: 0.469 µM
GI50 [23]: 1.57 µM
TGI [23]: 6.28 µM
GI50 [24]: 0.988 µM
TGI [24]: > 100 µM
GI50 [25]: 2.09 µM
TGI [25]: 6.22 µM
GI50 [26]: 0.57 µM
TGI [26]: 4.87 µM
GI50 [27]: 0.398 µM
TGI [27]: 1.67 µM
GI50 [28]: 3.96 µM
TGI [28]: > 32.6 µM
GI50 [29]: 0.366 µM
TGI [29]: 2.43 µM
GI50 [30]: 0.175 µM
TGI [30]: 0.343 µM
GI50 [31]: 1.01 µM
TGI [31]: > 100 µM
GI50 [32]: 0.308 µM
TGI [32]: 4.39 µM
GI50 [33]: 0.395 µM
TGI [33]: 1.96 µM
GI50 [34]: 0.359 µM
GI50 [35]: 0.279 µM
TGI [35]: 1.36 µM
GI50 [36]: 0.226 µM
TGI [36]: 0.537 µM
GI50 [37]: 2.37 µM
TGI [37]: > 21.1 µM
GI50 [38]: 0.663 µM
TGI [38]: 12.2 µM
GI50 [39]: 0.546 µM
TGI [39]: 20.7 µM
GI50 [40]: 0.662 µM
TGI [40]: 5.82 µM
GI50 [41]: 0.173 µM
TGI [41]: 0.349 µM
GI50 [42]: 0.44 µM
TGI [42]: > 100 µM
GI50 [43]: 0.444 µM
TGI [43]: 1.91 µM
GI50 [44]: 1.27 µM
TGI [44]: 4.94 µM
GI50 [45]: 0.57 µM
TGI [45]: 2.12 µM
GI50 [46]: 0.403 µM
TGI [46]: 1.51 µM
GI50 [47]: 0.688 µM
GI50 [48]: 0.144 µM
TGI [48]: 0.316 µM
GI50 [49]: 1.41 µM
TGI [49]: > 37.5 µM
GI50 [50]: 0.361 µM
TGI [50]: 4.66 µM
GI50 [51]: 0.504 µM
GI50 [52]: 0.349 µM
TGI [52]: > 34 µM
GI50 [53]: 0.268 µM
TGI [53]: 2.53 µM
GI50 [54]: 0.517 µM
TGI [54]: > 100 µM
GI50 [55]: 0.791 µM
TGI [55]: 2.84 µM
GI50 [56]: 1.06 µM
TGI [56]: > 59 µM
